Measurements reported in PubChem BioAssay AID463174 (Southern Research Specialized Biocontainment Screening …, 2010).
Activity calls are given as the source filed them. How the calls were made is not given here.

tested on: S. Typhi promoter-GFP counter-screen, fluorescence, 4 h; assay: late-stage follow-up, counter-screen for PhoP regulon inhibitor project, purified and synthesized compounds, set 5 (AID 463174); conditions: not given

Structure (SMILES) | IC50
O=C1C2=C(Nc3ccccc3SC2c2ccc(Cl)cc2)c2ccccc21 (stereo unspecified) | 89.6 µM

tested on: not listed separately; assay: as above; conditions: S. Typhi promoter-GFP counter-screen, fluorescence, 4 h; at 150 µM (top of the series)

Structure (SMILES) | inhibition
COc1cccc(NC(=O)N2CCCN(Cc3ccccc3F)C2)c1 | -3.56% (inactive)
O=C1C2=C(Nc3ccccc3SC2c2cccc(Br)c2)c2ccccc21 (stereo unspecified) | -12.6% (inactive)
Cc1ccc(C2Sc3ccccc3N=C3c4ccccc4CC32)cc1 (stereo unspecified) | -45.3% (inactive)
Clc1ccc(C2Sc3ccccc3N=C3c4ccccc4CC32)cc1 (stereo unspecified) | -48.2% (inactive)
O=C1C2=C(Nc3ccccc3SC2c2cccnc2)c2ccccc21 (stereo unspecified) | -32.9% (inactive)
